Target: human adenosine A2a receptor (Homo sapiens, UniProt P29274)
Test: Adenosine A2a receptor whole cell cyclic AMP assay
Conditions: for IC50: HEK293 cells stably expressing human A2a, 1 hour compound treatment; for inhibition at 10 µM: HEK293, 1 h, read-out: A2a @ 100 μM Adenosine (A2a cAMP IC50)
[1] = A2a @ 1 μM Adenosine (A2a cAMP IC50), 1 μM adenosine
[2] = A2a @ 100 μM Adenosine (A2a cAMP IC50), 100 μM adenosine

human adenosine A2a receptor, sequence (P29274 whole entry): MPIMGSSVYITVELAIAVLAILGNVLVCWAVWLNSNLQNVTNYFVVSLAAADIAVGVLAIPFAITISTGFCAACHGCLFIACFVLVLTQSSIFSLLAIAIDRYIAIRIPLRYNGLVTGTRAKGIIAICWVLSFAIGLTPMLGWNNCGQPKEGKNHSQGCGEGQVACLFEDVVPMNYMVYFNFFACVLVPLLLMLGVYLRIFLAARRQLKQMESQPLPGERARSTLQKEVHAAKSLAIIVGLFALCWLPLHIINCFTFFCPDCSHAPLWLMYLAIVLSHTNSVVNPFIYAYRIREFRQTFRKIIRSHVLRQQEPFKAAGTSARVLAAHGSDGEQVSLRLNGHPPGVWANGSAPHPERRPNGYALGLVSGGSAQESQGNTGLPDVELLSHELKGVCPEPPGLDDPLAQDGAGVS

IC50 [1]	inhibition at 10 µM	IC50 [2]	Structure (SMILES)
0.1 to 1 µM	–	–	Cc1cc(-c2c(-c3ccc(F)cc3)nc(N)c3nnnn23)cc(Cl)n1 [1-1, 5-(2-chloro-6-methylpyridin-4-yl)-6-(4-fluorophenyl)tetrazolo[1,5-a]pyrazin-8-amine]
> 1 µM	–	–	Cc1cc(-c2nc(N)c3nnnn3c2-c2ccc(F)cc2)cc(Cl)n1 [1-2, 6-(2-chloro-6-methylpyridin-4-yl)-5-(4-fluorophenyl)tetrazolo[1,5-a]pyrazin-8-amine]
> 1 µM	–	–	Cc1cc(Cl)cc(-c2c(-c3ccc(F)cc3)nc(N)c3nnnn23)c1 [1-3, 5-(3-chloro-5-methylphenyl)-6-(4-fluorophenyl)tetrazolo[1,5-a]pyrazin-8-amine]
> 1 µM	–	–	Cn1cc(-c2c(-c3ccc(F)cc3)nc(N)c3nnnn23)ccc1=O [1-4, 5-(8-amino-6-(4-fluorophenyl)tetrazolo[1,5-a]pyrazin-5-yl)-1-methylpyridin-2(1H)-one]
0.1 to 1 µM	–	–	COc1cc(-c2c(-c3ccc(F)cc3)nc(N)c3nnnn23)cc2cccnc12 [1-5, 6-(4-fluorophenyl)-5-(8-methoxyquinolin-6-yl)tetrazolo[1,5-a]pyrazin-8-amine]
> 1 µM	–	–	Nc1nc(-c2ccc(F)cc2)c(-c2ccc3ncnn3c2)n2nnnc12 [1-8, 5-([1,2,4]triazolo[1,5-a]pyridin-6-yl)-6-(4-fluorophenyl)tetrazolo[1,5-a]pyrazin-8-amine]
0.1 to 1 µM	< 25%	–	Nc1nc(-c2ccc(F)cc2)c(-c2ccc3nccn3c2)n2nnnc12 [1-9, 6-(4-fluorophenyl)-5-(imidazo[1,2-a]pyridin-6-yl)tetrazolo[1,5-a]pyrazin-8-amine]
0.1 to 1 µM	–	–	Nc1nc(-c2ccc(F)cc2)c(-c2ccc3ncoc3c2)n2nnnc12 [1-10, 5-(benzo[d]oxazol-6-yl)-6-(4-fluorophenyl)tetrazolo[1,5-a]pyrazin-8-amine]
< 0.1 µM	< 25%	–	Nc1nc(-c2ccc(F)cc2)c(-c2ccc3ncccc3c2)n2nnnc12 [1-11, 6-(4-fluorophenyl)-5-(quinolin-6-yl)tetrazolo[1,5-a]pyrazin-8-amine]
0.1 to 1 µM	< 25%	–	Nc1nc(-c2ccc(F)cc2)c(-c2ccc3ncsc3c2)n2nnnc12 [1-12, 5-(benzo[d]thiazol-6-yl)-6-(4-fluorophenyl)tetrazolo[1,5-a]pyrazin-8-amine]
0.1 to 1 µM	< 25%	–	Nc1nc(-c2ccc(F)cc2)c(-c2cc(F)c3nccn3c2)n2nnnc12 [1-14, 5-(8-fluoroimidazo[1,2-a]pyridin-6-yl)-6-(4-fluorophenyl)tetrazolo[1,5-a]pyrazin-8-amine]
0.1 to 1 µM	< 25%	–	Nc1nc(-c2ccc(F)cc2)c(-c2ccc3ncncc3c2)n2nnnc12 [1-15, 6-(4-fluorophenyl)-5-(quinazolin-6-yl)tetrazolo[1,5-a]pyrazin-8-amine]
0.1 to 1 µM	< 25%	–	Nc1nc(-c2ccc(F)cc2)c(-c2cc3cnccc3s2)n2nnnc12 [1-16, 6-(4-fluorophenyl)-5-(thieno[3,2-c]pyridin-2-yl)tetrazolo[1,5-a]pyrazin-8-amine]
0.1 to 1 µM	< 25%	–	Nc1nc(-c2ccc(F)cc2)c(-c2cc(Cl)c3nccn3c2)n2nnnc12 [1-17, 5-(8-chloroimidazo[1,2-a]pyridin-6-yl)-6-(4-fluorophenyl)tetrazolo[1,5-a]pyrazin-8-amine]
> 1 µM	< 25%	–	Cc1nc2ccc(-c3c(-c4ccc(F)cc4)nc(N)c4nnnn34)cn2n1 [1-18, 6-(4-fluorophenyl)-5-(2-methyl-[1,2,4]triazolo[1,5-a]pyridin-6-yl)tetrazolo[1,5-a]pyrazin-8-amine]
0.1 to 1 µM	–	> 1 µM	Nc1nc(-c2ccc(F)cc2)c(-c2cc(F)c3ncccc3c2)n2nnnc12 [1-19, 6-(4-fluorophenyl)-5-(8-fluoroquinolin-6-yl)tetrazolo[1,5-a]pyrazin-8-amine]
> 1 µM	< 25%	–	Cc1cn2cc(-c3c(-c4ccc(F)cc4)nc(N)c4nnnn34)cc(F)c2n1 [1-21, 5-(8-fluoro-2-methylimidazo[1,2-a]pyridin-6-yl)-6-(4-fluorophenyl)tetrazolo[1,5-a]pyrazin-8-amine]
< 0.1 µM	< 25%	–	N#Cc1cnc2ccc(-c3c(-c4ccc(F)cc4)nc(N)c4nnnn34)cn12 [1-22, 6-(8-amino-6-(4-fluorophenyl)tetrazolo[1,5-a]pyrazin-5-yl)imidazo[1,2-a]pyridine-3-carbonitrile]
< 0.1 µM	–	–	Nc1nc(-c2ccc(F)cc2)c(-c2ccc3ncc(Cl)n3c2)n2nnnc12 [1-23, 5-(3-chloroimidazo[1,2-a]pyridin-6-yl)-6-(4-fluorophenyl)tetrazolo[1,5-a]pyrazin-8-amine]
0.1 to 1 µM	–	0.1 to 1 µM	Cc1cnc2c(Cl)cc(-c3c(-c4ccc(F)cc4)nc(N)c4nnnn34)cn12 [1-24, 5-(8-chloro-3-methylimidazo[1,2-a]pyridin-6-yl)-6-(4-fluorophenyl)tetrazolo[1,5-a]pyrazin-8-amine]
0.1 to 1 µM	–	–	Cc1cc(-c2c(-c3ccccc3F)nc(N)c3nnnn23)cc(Cl)n1 [1-26, 5-(2-chloro-6-methylpyridin-4-yl)-6-(2-fluorophenyl)tetrazolo[1,5-a]pyrazin-8-amine]
0.1 to 1 µM	–	–	Cc1cc(-c2c(-c3cccc(F)c3)nc(N)c3nnnn23)cc(Cl)n1 [1-27, 5-(2-chloro-6-methylpyridin-4-yl)-6-(3-fluorophenyl)tetrazolo[1,5-a]pyrazin-8-amine]
< 0.1 µM	< 25%	–	Cc1cc(-c2c(-c3ccc(F)cc3)nc(N)n3nnnc23)cc(C)n1 [1-28, 8-(2,6-dimethylpyridin-4-yl)-7-(4-fluorophenyl)tetrazolo[1,5-c]pyrimidin-5-amine]
0.1 to 1 µM	–	–	Cn1cc(-c2c(-c3ccc(F)cc3)nc(N)n3nnnc23)ccc1=O [1-29, 5-(5-amino-7-(4-fluorophenyl)tetrazolo[1,5-c]pyrimidin-8-yl)-1-methylpyridin-2(1H)-one]
< 0.1 µM	–	–	Cn1cnc2ccc(-c3c(-c4ccc(F)cc4)nc(N)n4nnnc34)cc21 [1-30, 7-(4-fluorophenyl)-8-(1-methyl-1H-benzo[d]imidazol-6-yl)tetrazolo[1,5-c]pyrimidin-5-amine]
0.1 to 1 µM	–	–	Cc1ccnc2ccc(-c3c(-c4cccc(C#N)c4)nc(N)c4nnnn34)cc12 [1-31, 3-(8-amino-5-(4-methylquinolin-6-yl)tetrazolo[1,5-a]pyrazin-6-yl)benzonitrile]
0.1 to 1 µM	–	–	Cc1cc(-c2c(-c3ccccc3)nc(N)c3nnnn23)cc(Cl)n1 [1-32, 5-(2-chloro-6-methylpyridin-4-yl)-6-phenyltetrazolo[1,5-a]pyrazin-8-amine]
0.1 to 1 µM	–	–	Cc1cc(-c2c(-c3ccc(F)cc3)nc(N)n3nnnc23)cc(Cl)n1 [1-33, 8-(2-chloro-6-methylpyridin-4-yl)-7-(4-fluorophenyl)tetrazolo[1,5-c]pyrimidin-5-amine]
< 0.1 µM	–	–	Nc1nc(-c2ccc(F)cc2)c(-c2ccc3nccc(Cl)c3c2)c2nnnn12 [1-35, 8-(4-chloroquinolin-6-yl)-7-(4-fluorophenyl)tetrazolo[1,5-c]pyrimidin-5-amine]
0.1 to 1 µM	–	–	Nc1nc(-c2ccc(F)cc2)c(-c2ccc3ncccc3c2)c2nnnn12 [1-37, 7-(4-fluorophenyl)-8-(quinolin-6-yl)tetrazolo[1,5-c]pyrimidin-5-amine]

Source: patent US12065444B2, “Substituted tetrazolo[1,5-a]pyrazines and tetrazolo[1,5-c]pyrimidines as adenosine receptor antagonists” (Crossignal Therapeutics, Inc., priority 2021, dated 2024)
